Legend:
Pseudomonas aeruginosa = details: fraction of MIC, Non Patent Literatures 4 and 5; cited from earlier work
[1] = tested on: Staphylococcus aureus ATCC25923; experiment: Colistin MIC with antibody, Staphylococcus aureus; type: cell-based; details: same in absence and presence of 10 μg/mL 4P41 LZ trimer
Procedure: The minimum growth inhibitory concentration (MIC) of an antimicrobial agent was measured by a microbroth dilution method in accordance with the Clinical Laboratory Standards Institute (CLSI) guideline. The serially diluted antimicrobial agent was added to a 96-well round bottom microtiter plate (Watson Co., Ltd.) at 100 μL/well, and each bacterial strain was inoculated at 5×10^5 CFU/mL/well. As the antimicrobial agent, Aztreonam (Sigma-Aldrich), Amikacin (Sigma-Aldrich), Arbekacin (Meiji Seika Pharma Co., Ltd.), Ofloxacin (Sigma-Aldrich), colistin (Sigma-Aldrich), and Polymyxin B (Sigma-Aldrich) were used. Synergistic effect of an antibody and an antimicrobial agent was evaluated using a checkerboard dilution method. Each of the antimicrobial agents was serially two-fold diluted in the vertical direction in a 96-well round bottom titer plate to concentrations between 0.125 to 2 times the MIC. Subsequently, an antibody was serially two-fold diluted in the horizontal direction of the plate in a range of 0 to 10 μg/mL or 0 to 20 μg/mL. Each bacterial strain was inoculated at 5×10^5 CFU/mL/well.
A multidrug-resistant Pseudomonas aeruginosa NCGM2.S1 and drug-susceptible Pseudomonas aeruginosa PAO1 and OCR1 were cultured using Luria Bertani (LB) medium (BD) or an LB plate containing 15 g/L of agar at 37° C. […]

[2] = tested on: multidrug-resistant Pseudomonas aeruginosa NCGM2.S1; experiment: Silkworm Pseudomonas aeruginosa infection model; type: in vivo; details: colistin alone administration group, probit analysis
Procedure: A: Overnight culture solution of NCGM2.S1 was diluted by 100 times and cultured for 16 hours and was then injected into hemolymph of silkworms on the 2nd day of the 5th instar, and 0.05 mL of colistin was then injected into the blood. The survival rates were measured over 96 hours. […] The survival rates were measured over 96 hours. […] The survival rates were measured over 96 hours.
Overnight culture solution of multidrug-resistant Pseudomonas aeruginosa NCGM2.S1 was diluted 100 times and was further cultured overnight. The bacterial culture solution was diluted with physiological saline (Otsuka Pharmaceutical Co., Ltd.), and 0.05 mL thereof was injected into hemolymph from the dorsal surface using a 1-mL injection syringe (Terumo Corporation) and 27-gauge syringe needle (Terumo Corporation), and the silkworm larvae were fed at 27° C. The median lethal dose was measured from the survival rate after 24 hours, and 0.05 mL of the bacteria in an amount 4 times the median lethal dose was injected to make a silkworm Pseudomonas aeruginosa infection model.

[3] = tested on: multidrug-resistant Pseudomonas aeruginosa strain NCGM2.S1; experiment: Drug susceptibility test (MIC, microbroth dilution, CLSI) with antibody added; type: cell-based; details: NCGM2.S1, antibody 10 μg/mL, FIG. 14B
Procedure: B: MIC of colistin in the presence of an antibody. The MIC of colistin in the presence of each antibody in NCGM2.S1 was measured by a microbroth dilution method in accordance with the CLSI guideline. […] As the negative control, a 4P6 trimer which is a human TRAIL-R1 VHH trimer was used.
The minimum growth inhibitory concentration (MIC) of an antimicrobial agent was measured by a microbroth dilution method in accordance with the Clinical Laboratory Standards Institute (CLSI) guideline. The serially diluted antimicrobial agent was added to a 96-well round bottom microtiter plate (Watson Co., Ltd.) at 100 μL/well, and each bacterial strain was inoculated at 5×10^5 CFU/mL/well. As the antimicrobial agent, Aztreonam (Sigma-Aldrich), Amikacin (Sigma-Aldrich), Arbekacin (Meiji Seika Pharma Co., Ltd.), Ofloxacin (Sigma-Aldrich), colistin (Sigma-Aldrich), and Polymyxin B (Sigma-Aldrich) were used. Synergistic effect of an antibody and an antimicrobial agent was evaluated using a checkerboard dilution method. Each of the antimicrobial agents was serially two-fold diluted in the vertical direction in a 96-well round bottom titer plate to concentrations between 0.125 to 2 times the MIC. Subsequently, an antibody was serially two-fold diluted in the horizontal direction of the plate in a range of 0 to 10 μg/mL or 0 to 20 μg/mL. Each bacterial strain was inoculated at 5×10^5 CFU/mL/well. […]

[4] = tested on: ovalbumin-loop 1 peptide (loop 1 of OprM); experiment: ELISA binding of VHH monomer to loop 1 antigen; design: species or system Pseudomonas aeruginosa; details: purified monomer protein
Procedure: In the anti-loop 1 VHH antibody, 0.1 M NaHCO3 (Blank), 0.1 M NaHCO3 containing […] of thyroglobulin, 0.1 M NaHCO3 containing 10 μg/mL of thyroglobulin-loop 1 peptide, or 0.1 M NaHCO3 containing 10 μg/mL of ovalbumin-loop 1 peptide was added to a 96-well immuno plate (Nunc) at 40 μL/well and was left to stand at 4° C. overnight.
In the anti-loop 2 VHH antibody, 0.1 M NaHCO3 (Blank), 0.1 M NaHCO3 containing […] of KLH-loop 2 peptide was added to a 96-well immuno plate (Nunc) at 40 μL/well and was left to stand at 4° C. overnight. SuperBlock-PBS (Thermo Fisher Scientific) was added to the plate at 350 μL/well and left to stand at room temperature for 1 hour. After washing with 400 μL/well of PBS-T (phosphate buffer saline containing 0.05% Tween 20), 40 µL/well of SuperBlock-TBS containing 0.2 μg/mL of the VHH antibody was added thereto, followed by reaction at room temperature for 1 hour. The wells were washed with 400 μL/well of PBS-T again three times, and 40 μL/well of anti-Myc mouse monoclonal antibody 9E10 (Santa Cruz Biotechnology Inc.) diluted 500 times with SuperBlock-TBS was added thereto, followed by reaction at room temperature for 1 hour. […] Subsequently, absorbance at 450 nm was measured, and the average and standard deviation were calculated of triplicate or quadruplicate measurement.

c1ccc2c(c1)Nc1ccccc1S2 [phenothiazine]
decrease of the MIC value of an antimicrobial agent in Pseudomonas aeruginosa (Pseudomonas aeruginosa): ⅛

c1ccc2c(CN3CCNCC3)cccc2c1 [NMP, 1-(1-naphthylmethyl)-piperazine]
decrease of the MIC value of an antimicrobial agent in Pseudomonas aeruginosa (Pseudomonas aeruginosa): ⅛

colistin
MIC of colistin in Staphylococcus aureus [1]: > 128 µg/mL
therapeutically effective dose ED50 of colistin [2]: 124 μg/g body weight

B1: 4P94 monomer: anti-loop 1 VHH antibody from alpaca, monomer with cMyc-Tag and His-Tag (protein)
VHH: EVQLVESGGGLVQAGNSLKLSCVVSGRTLRNYAMGWFRQAPLKEREFVAAIGWTTGTASYGTPTYSDSVKGRFTISRDNAGNTLYLLMNNLKPEDTAVYYCAAGLIGYFGDRISSASVYDGWGQGTQVTVSS
modifications: left off: small tags and cut ends
notes: anti-loop 1 VHH antibody from alpaca, monomer with cMyc-Tag and His-Tag
change in MIC of colistin, antibody added at 10 μg/mL [3]: ¼
binding to ovalbumin-loop 1 peptide [4]: specifically bound

— patent publication US20250136669A1, “VHH ANTIBODY” (TEIKYO HEISEI UNIVERSITY, priority 2021, published 2025)
